A word on the IC50: it is the midpoint of a concentration-inhibition curve. Low readings indicate greater potency in that assay, high ones weaker potency in that assay.

The target of experiment [1] is NLRP3 inflammasome (Homo sapiens, UniProt Q96P20). In words: NLRP3 inflammasome activation in THP1 macrophages (LPS priming, nigericin), IL-1β AlphaLISA. In kind it is cell-based. Conditions: PMA-differentiated THP1, LPS 20 ng/ml 3 hrs, compound 1 hr, Nigericin 6.7 uM 3 hrs, supernatant. A general note: Bead proximity is the source of the signal in Alpha formats.
Chain of NLRP3 inflammasome (Q96P20 whole entry): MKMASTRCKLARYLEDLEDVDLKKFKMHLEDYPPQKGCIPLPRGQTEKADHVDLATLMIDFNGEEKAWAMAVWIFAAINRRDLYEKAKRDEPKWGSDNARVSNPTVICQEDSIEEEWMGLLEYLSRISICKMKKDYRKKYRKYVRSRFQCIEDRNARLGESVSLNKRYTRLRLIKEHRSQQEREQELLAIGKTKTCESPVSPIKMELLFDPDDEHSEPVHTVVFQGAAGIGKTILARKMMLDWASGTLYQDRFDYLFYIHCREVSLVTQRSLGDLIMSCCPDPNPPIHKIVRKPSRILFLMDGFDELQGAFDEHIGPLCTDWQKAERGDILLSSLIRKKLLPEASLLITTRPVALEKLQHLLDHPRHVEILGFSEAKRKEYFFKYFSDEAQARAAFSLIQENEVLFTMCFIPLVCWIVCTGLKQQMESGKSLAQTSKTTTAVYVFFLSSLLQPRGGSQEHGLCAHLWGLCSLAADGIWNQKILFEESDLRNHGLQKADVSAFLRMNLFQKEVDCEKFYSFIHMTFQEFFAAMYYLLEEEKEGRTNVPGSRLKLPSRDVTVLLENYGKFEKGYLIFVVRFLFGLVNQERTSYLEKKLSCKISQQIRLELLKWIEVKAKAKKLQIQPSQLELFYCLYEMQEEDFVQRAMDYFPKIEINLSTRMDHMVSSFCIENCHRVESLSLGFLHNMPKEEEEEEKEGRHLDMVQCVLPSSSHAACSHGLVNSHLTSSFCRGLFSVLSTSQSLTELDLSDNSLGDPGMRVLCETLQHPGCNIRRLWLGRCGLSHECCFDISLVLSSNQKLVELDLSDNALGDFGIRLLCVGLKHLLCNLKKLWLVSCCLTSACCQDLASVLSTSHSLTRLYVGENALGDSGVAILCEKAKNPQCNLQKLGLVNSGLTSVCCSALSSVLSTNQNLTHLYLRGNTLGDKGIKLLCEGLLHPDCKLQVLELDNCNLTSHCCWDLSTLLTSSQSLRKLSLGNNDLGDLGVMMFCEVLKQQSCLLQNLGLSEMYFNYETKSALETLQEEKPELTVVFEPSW
The subject of experiment [2] is IL-6. In words: IL-6 release from LPS-primed, nigericin-treated THP1 macrophages, Hu IL-6 AlphaLISA. In kind it is cell-based. Conditions: Homo sapiens, THP-1; PMA-differentiated THP1, LPS 20 ng/ml 3 hrs, compound 1 hr, Nigericin 6.7 uM 3 hrs, supernatant.

As for `Cc1cc(F)ccc1-c1cc(F)c(N[C@@H]2CCCN(C)C2)nn1` [compound 154], the half-inhibitory concentration (IC50) in experiment [1] is 100 to 500 nM; in experiment [2], over 10000 nM.
Take `Cc1cc(F)ccc1-c1nnc(N[C@@H]2CCCN(C)C2)cc1C` [compound 132]: the IC50 in experiment [1] was 10 to 50 nM; in experiment [2] it was over 10000 nM.
Regarding `CCN1CCC[C@@H](Nc2nnc(-c3ccc(F)cc3)cc2C(F)(F)F)C1` [compound 197], the half-maximal inhibitory concentration (IC50) in experiment [1] was over 1000 nM; in experiment [2], over 10000 nM.
In the case of `Cc1cc(N[C@@H]2C[C@@H](F)CN(C(C)C)C2)nnc1-c1ccc(Cl)cc1` [compound 152], the results for the IC50 in experiment [1] and in experiment [2] were 10 to 50 nM and over 10000 nM, respectively.
`Cc1cc(N(C)[C@@H]2CCN(C)C2)nnc1-c1ccc(F)cc1` [compound 184]: the half-maximal inhibitory concentration (IC50) in experiment [1] was over 1000 nM; in experiment [2] it was 5000 to 10000 nM.
The matching figures for `Cc1cc(-c2ccc(C3CCC3)cc2)nnc1N[C@@H]1CCCN(C)C1` [compound 95]: over 1000 nM and 5000 to 10000 nM.
Regarding `Cc1cc(N[C@@H]2CCCN(C)C2)nnc1-c1ccc(O)cc1` [compound 104], the IC50 in experiment [1] is over 1000 nM; in experiment [2], over 10000 nM.
Take `Cc1cc(-c2ccc(N[C@@H]3CCCN(C)C3)nn2)cc(C)c1F` [compound 106]: the IC50 in experiment [1] is over 1000 nM; in experiment [2], over 10000 nM.
Regarding `Cc1cc(N[C@@H]2CCCN(C(C)C)C2)nnc1-c1ccc(Cl)cc1` [compound 156], the figures for the IC50 in experiment [1] and in experiment [2] were at most 10 nM and over 10000 nM, respectively.
Regarding `Cc1cc(N[C@@H]2C[C@@H](F)CN(C)C2)nnc1-c1ccc(C(F)(F)F)cc1` [compound 17], the half-maximal inhibitory concentration (IC50) in experiment [1] is 50 to 100 nM; in experiment [2] it was over 10000 nM.
As for `Cc1cc(-c2ccc(F)c(F)c2)nnc1N[C@@H]1CCCN(C)C1` [compound 117], the half-maximal inhibitory concentration (IC50) in experiment [1] was over 1000 nM; in experiment [2], over 10000 nM.
With `CCN1C[C@H](F)C[C@@H](Nc2cc(C)c(-c3ccc(C(F)(F)F)cc3)nn2)C1` [compound 146], the IC50 is at most 10 nM in experiment [1] and 5000 to 10000 nM in experiment [2].
On to `COc1cc(F)cc(C)c1-c1ccc(N[C@@H]2CCCN(C)C2)nn1` [compound 164], for which the figures for the half-maximal inhibitory concentration (IC50) in experiment [1] and in experiment [2] were over 1000 nM and over 10000 nM, respectively.
For `Cc1cc(N[C@@H]2CCCN(C)C2)nnc1-c1ccc(Cl)cc1F` [compound 153], in that order: over 1000 nM and 5000 to 10000 nM.
As for `CCc1cc(N[C@@H]2CCCN(C)C2)nnc1-c1ccc(C(F)(F)F)cc1` [compound 10], the figures for the concentration for half-maximal inhibition (IC50) in experiment [1] and in experiment [2] were 10 to 50 nM and 5000 to 10000 nM, respectively.
Take `Cc1cc(N[C@@H]2CCCN(C(C)C)C2)nnc1-c1ccc(F)cc1` [compound 135]: the concentration for half-maximal inhibition (IC50) in experiment [1] was 10 to 50 nM; in experiment [2], over 10000 nM.
In the case of `Cc1cc(N[C@H]2CN(C)CC[C@@H]2F)nnc1-c1ccc(F)cc1` [compound 138], the IC50 is over 1000 nM in experiment [1] and over 10000 nM in experiment [2].
On to `CCc1cccc(-c2cc(C)c(N[C@@H]3CCCN(C)C3)nn2)c1` [compound 78], for which the IC50 in experiment [1] was over 1000 nM; in experiment [2], over 10000 nM.
On to `CCN1C[C@H](F)C[C@@H](Nc2cc(C)c(-c3ccc(F)cc3)nn2)C1` [compound 150], for which the concentration for half-maximal inhibition (IC50) in experiment [1] was over 1000 nM; in experiment [2], over 10000 nM.
Regarding `Cc1cc(N[C@@H]2CCCN(C)C2)nnc1-c1ccc(C(F)(F)F)c(Cl)c1` [compound 39], the IC50 in experiment [1] was 500 to 1000 nM; in experiment [2], over 10000 nM.
Consider `CN1CCC[C@@H](Nc2ccc(-c3ccc(F)cc3C(F)(F)F)nn2)C1` [compound 130], for which the IC50 in experiment [1] was 10 to 50 nM; in experiment [2], 5000 to 10000 nM.
Consider `Cc1cc(-c2ccc(C(F)(F)F)cc2)nnc1N[C@@H]1CCCN(C)C1` [compound 36], for which the concentration for half-maximal inhibition (IC50) was 500 to 1000 nM in experiment [1] and over 10000 nM in experiment [2].
Regarding `Cc1ccc(-c2nnc(N[C@@H]3CCCN(C)C3)cc2C)cc1` [compound 11], the values for the IC50 in experiment [1] and in experiment [2] were 10 to 50 nM and 1000 to 5000 nM, respectively.
`Cc1cc(N[C@@H]2CCCN(C3CC3)C2)nnc1-c1ccc(F)cc1` [compound 120]: the IC50 in experiment [1] is 50 to 100 nM; in experiment [2], over 10000 nM.
Take `Cc1cc(N[C@@H]2CCCN(C)C2)nnc1-c1ccc(Cl)c(F)c1` [compound 145]: the concentration for half-maximal inhibition (IC50) was 50 to 100 nM in experiment [1] and over 10000 nM in experiment [2].
For the compound `CN1CCC[C@@H](Nc2cc(F)c(-c3ccc(C(F)(F)F)cc3)nn2)C1` [compound 143], the concentration for half-maximal inhibition (IC50) in experiment [1] was 10 to 50 nM; in experiment [2] it was over 10000 nM.
`Cc1cc(-c2ccccc2C#N)nnc1N[C@@H]1CCCN(C)C1` [compound 90]: the concentration for half-maximal inhibition (IC50) in experiment [1] is over 1000 nM; in experiment [2], over 10000 nM.
For `Cc1cc(N[C@@H]2CCCN(C)C2)nnc1-c1cccc(Cl)c1` [compound 43], in that order: over 1000 nM and 5000 to 10000 nM.
On to `Cc1cc(Cl)ccc1-c1nnc(N[C@@H]2CCCN(C)C2)cc1C` [compound 123], for which the values for the IC50 in experiment [1] and in experiment [2] were at most 10 nM and over 10000 nM, respectively.
With `Cc1cc(N[C@@H]2CCCN(C)C2)nnc1-c1ccc(C(F)(F)F)cc1F` [compound 6], the IC50 was 10 to 50 nM in experiment [1] and over 10000 nM in experiment [2].
On to `Cc1cc(Cl)ccc1-c1nnc(N(C)[C@@H]2CCCN(C)C2)cc1C` [compound 204], for which the figures for the 50% inhibitory concentration (IC50) in experiment [1] and in experiment [2] were 500 to 1000 nM and over 10000 nM, respectively.
As to `Cc1cc(O[C@@H]2CCCN(C)C2)nnc1-c1ccc(Cl)cc1` [compound 210], the results for the 50% inhibitory concentration (IC50) in experiment [1] and in experiment [2] were 100 to 500 nM and over 10000 nM, respectively.
`Cc1cc(N[C@@H]2CCCN(C)C2)nnc1-c1ccc(F)cc1C(F)F` [compound 203]: the IC50 in experiment [1] is 10 to 50 nM; in experiment [2] it was over 10000 nM.
As to `Cc1cc(N[C@@H]2CCCN(CCO)C2)nnc1-c1ccc(C(F)(F)F)cc1` [compound 15, 2-[(3R)-3-[[5-methyl-6-[4-(trifluoromethyl)phenyl]pyridazin-3-yl]amino]-1-piperidyl]ethanol], the IC50 in experiment [1] is 10 to 50 nM; in experiment [2], over 10000 nM.
For the compound `Cc1cc(N[C@@H]2CCCN(CC(F)(F)F)C2)nnc1-c1ccc(C(F)(F)F)cc1` [compound 114], the results for the IC50 in experiment [1] and in experiment [2] were over 1000 nM and over 10000 nM, respectively.
On to `Cc1ccc(-c2cc(C(F)(F)F)c(N[C@@H]3CCCN(C)C3)nn2)cc1` [compound 91], for which the IC50 in experiment [1] was over 1000 nM; in experiment [2], over 10000 nM.
Consider `Cc1cc(N[C@@H]2CCCN(C)C2)nnc1-c1ccc(OC(F)(F)F)cc1` [compound 7], for which the IC50 in experiment [1] is 10 to 50 nM; in experiment [2], over 10000 nM.
As to `Cc1cc(N[C@@H]2CCCN(C)C2)nnc1-c1cccc(C(F)(F)F)c1` [compound 46], the IC50 is over 1000 nM in experiment [1] and over 10000 nM in experiment [2].
As for `Cc1cc(N[C@@H]2CCCN(C)C2)nnc1-c1ccccc1C(F)F` [compound 159], the results for the IC50 in experiment [1] and in experiment [2] were 500 to 1000 nM and 5000 to 10000 nM, respectively.
Regarding `Cc1cc(-c2cc(C)c(F)c(C)c2)nnc1N[C@@H]1CCCN(C)C1` [compound 107], the IC50 in experiment [1] was over 1000 nM; in experiment [2], over 10000 nM.
For `Cc1cc(Cl)ccc1-c1cc(C)c(N[C@@H]2CCCN(C)C2)nn1` [compound 124], in that order: 10 to 50 nM and 5000 to 10000 nM.
With `Cc1cc(C(F)(F)F)ccc1-c1nnc(N[C@@H]2CCCN(C)C2)cc1O` [compound 198], the IC50 in experiment [1] was 500 to 1000 nM; in experiment [2], over 10000 nM.
Consider `Cc1cc(Cl)ccc1-c1nnc(N[C@@H]2CCCN(C(C)C)C2)cc1C` [compound 200], for which the IC50 is at most 10 nM in experiment [1] and over 10000 nM in experiment [2].
The matching figures for `Cc1cc(N[C@@H]2C[C@@H](F)CN(C(C)C)C2)nnc1-c1ccc(F)cc1` [compound 190]: 50 to 100 nM and over 10000 nM.
Regarding `Cc1ccc(-c2cc(C)c(N[C@@H]3CCCN(C)C3)nn2)cc1` [compound 82], the values for the half-maximal inhibitory concentration (IC50) in experiment [1] and in experiment [2] were over 1000 nM and over 10000 nM, respectively.
The matching figures for `Cc1ccccc1-c1ccc(N[C@@H]2CCCN(C)C2)nn1` [compound 85]: over 1000 nM and over 10000 nM.
As to `Cc1cc(N[C@H]2CN(C)CC(F)(F)C2)nnc1-c1ccc(C(F)(F)F)cc1` [compound 69], the IC50 in experiment [1] was 50 to 100 nM; in experiment [2], over 10000 nM.
As for `Cc1cc(O[C@@H]2CCCN(C)C2)nnc1-c1ccc(F)cc1` [compound 179], the IC50 in experiment [1] was over 1000 nM; in experiment [2], over 10000 nM.
Take `Cc1cc(N[C@@H]2CCCN(C)C2)nnc1-c1ccc(C#N)cc1` [compound 31]: the values for the IC50 in experiment [1] and in experiment [2] were 100 to 500 nM and over 10000 nM, respectively.
For `CCN1CCC[C@@H](Nc2cc(C)c(-c3ccc(Cl)cc3C)nn2)C1` [compound 201], in that order: at most 10 nM and over 10000 nM.
Take `Cc1cc(N[C@@H]2CCCN(C)C2)nnc1-c1ccc(F)c(Cl)c1` [compound 34]: the figures for the IC50 in experiment [1] and in experiment [2] were 100 to 500 nM and over 10000 nM, respectively.
As to `Cc1c(N[C@@H]2CCCN(C)C2)nnc(-c2ccc(C(F)(F)F)cc2)c1C` [compound 14], the IC50 in experiment [1] is 10 to 50 nM; in experiment [2], over 10000 nM.
In the case of `Cc1cc(N[C@@H]2CCN(C)C2)nnc1-c1ccc(F)cc1` [compound 183], the half-maximal inhibitory concentration (IC50) in experiment [1] was 100 to 500 nM; in experiment [2] it was over 10000 nM.
For `Cc1cc(N[C@@H]2CCCN(CCF)C2)nnc1-c1ccc(F)cc1` [compound 65], the concentration for half-maximal inhibition (IC50) in experiment [1] is 500 to 1000 nM; in experiment [2] it was over 10000 nM.
Turning to `Cc1cc(-c2ccc(N[C@@H]3CCCN(C)C3)nn2)c(C)cc1F` [compound 71], the IC50 in experiment [1] is 10 to 50 nM; in experiment [2] it was over 10000 nM.
On to `Cc1cc(-c2ccc(F)c(C#N)c2)nnc1N[C@@H]1CCCN(C)C1` [compound 109], for which the IC50 in experiment [1] was over 1000 nM; in experiment [2] it was over 10000 nM.
With `CC(C)c1cc(N[C@@H]2CCCN(C)C2)nnc1-c1ccc(C(F)(F)F)cc1` [compound 23], the results for the concentration for half-maximal inhibition (IC50) in experiment [1] and in experiment [2] were 100 to 500 nM and over 10000 nM, respectively.
For `Cc1ccc(-c2ccc(N[C@@H]3CCCN(C)C3)nn2)c(C)c1` [compound 21], in that order: 100 to 500 nM and 5000 to 10000 nM.
Regarding `Cc1cc(N[C@@H]2CCCN(C)C2)nnc1-c1ccc(F)cc1` [compound 16], the concentration for half-maximal inhibition (IC50) is 10 to 50 nM in experiment [1] and over 10000 nM in experiment [2].
